Values of other authors in patent US7985432B2, “Insect repellent” (Bioniche Life Sciences, Inc., priority 2003, dated 2011).

Tested on: Mosquitoes

In the case of `CC1=COC(=O)C2C(C)CCC12` (stereo not shown) [Nepetalactone], the “Effectiveness at repelling mosquitoes relative to DEET” value is given as “about ten times more effective at repelling mosquitoes than DEET”.
